Key:
[1] = pH 7.4 solution at 37° C.; cited from earlier work
[2] = test system: H9c2 cardiac myoblasts; experiment: Intracellular sulfane sulfur detection using the SSP4 probe; type: cell-based, rat; design: SSP4 fluorescence signal (intracellular sulfane sulfur): dose or concentration left out as unconfirmed
Experimental: Increased intracellular RSSH levels resulting from incubation with 1a utilizing SSP4, a fluorescent probe that has been used to detect of intracellular sulfane sulfur, Chen et al., 2013; Marutani et al., 2014, also was tested. Sulfane sulfur refers to a sulfur atom with six valence electrons and no charge. Biologically important sulfane sulfur compounds include RSSH, polysulfides (RSnSH or RSSnSR, n≥1), inorganic polysulfides (HSSnH, n≥1), and elemental sulfur (S8). Briefly, cells were incubated with SSP4 in the presence of cetrimonium bromide (CTAB) for 20 min and then washed with serum-free media before 1a is introduced. A significant increase of the SSP4 fluorescence signal was not observed following treatment with […] 1a due to the low amount of RSSH released at this concentration falling below the detection limit of the probe (FIG. 6). […] Since the SSP4 probe is known to react with a variety of sulfane sulfur species, the fluorescence signal observed upon treatment of 1a is likely due to RSSH and/or other sulfane sulfur species that might be present in the equilibrium with RSSH (e.g., Scheme 1-5). Thus, it is thought that the cytoprotective effects of 1a are attributed to increasing sulfane sulfur pools within the cultured cells.
Cells were seeded at a density of 1.5×10^4 cells/well. […] The fluorescence readings were obtained at 482Ex/515Em.

[3] = Kinetics of RSSH release (precursor hydrolysis) in the presence of MMTS, monitored by HPLC; type: physicochemical
Experimental: After confirming RSSH generation from 1a, the kinetics of RSSH release from alkylsulfenyl thiocarbonates in the presence of MMTS was analyzed by high-performance liquid chromatography (HPLC). Due to the lack of a chromophore in MMTS adduct 7, the decay of the RSSH precursor and formation of the corresponding phenol byproduct was monitored. First-order rate constants were obtained by plotting the precursor decay and phenol byproduct formation as a function of time. […] The observation of similar rate constants for both 1a decay and phenol (4a) formation indicates a rapid reaction of relased RSSH with MMTS, and that these observed rate constants indicate the RSSH release rate. Importantly, 92% of the byproduct phenol 4a is observed. In addition, the effect of pH on the kinetics of RSSH release also was examined.
The RSSH release kinetics for precursors containing a variety of para-substituted phenols were then compared. It was hoped to decrease the rate of RSSH release through the introduction of electron-donating groups. Indeed, a small decrease in the RSSH release rate from 1b, equipped with a 4-Me substituent (137±4 min) (Table 1) was observed.
MMTS (100 μL, 50 mM) was added in pH 7.4 phosphate buffer saline (4.85 mL) containing the DTPA (100 μM) as metal chelator. This solution was preincubated for 10 min at 37° C. and then precursor 1a-f or 8 (50 μL, 10 mM) were independently added into the mixture (total volume=5 mL). The resulting solution was incubated at 37° C. At different time points, an aliquot of 300 μL was taken and quenched with 300 μL 0.1% formic acid solution. These samples were stored at 0° C. until HPLC analysis was performed. The sample (20 μL) was injected into a high-performance liquid chromatography (HPLC) equipped with Phenomenex C-18 reverse phase column (250 mm×4.6 mm, 5 μm). HPLC Method: mobile phase A (H2O) and mobile phase B (ACN), flow rate: 1 mL/min, run time: 21 min, the gradient elution method: 10% to 70% B from 0 to 10 min, 70% to 90% B from 10 to 21 min. The elution was monitored by a UV detector at 240 and 275 nm. First-order rate constants were obtained by plotting the precursor decay and phenol by-product formation as a function of time.

[4] = test system: transferrin receptor 1 (TFR1); experiment: TFR1 protein expression, immunoblot; type: cell-based, human; conditions: 25 and 50 μM for 4 h, erastin 24 h
Experimental: FIG. 14A, FIG. 14B, FIG. 14C, and FIG. 14D show: FIG. 14A and FIG. 14B pretreatment of AST (25 and 50 μM) for 4 h followed by 24 h treatment with erastin ([…]) immunoblots for indicated proteins of lysates derived from FA fibroblasts. FIG. 14C and FIG. 14D, relative abundance of TFR1 and FTH1 proteins normalized to β-actin loading control. Results are the means+SEM of n=3 for all concentrations. *P<0.05, **P<0.005, comparisons with the erastin group. Group comparisons are determined by a one-way analysis of variance (ANOVA) with Dunnet's correction post-hoc test using GraphPad Prism 8. Samples were run on the same gel for SDS-Page gel electrophoresis in nonconsecutive lanes;
To test this hypothesis, we studied the effect of RSSH on TFR1 and FTH1 expression levels. We anticipated that the impacts of RSSH would result in downregulation of TFR1 and upregulation of FTH1. […] Feng et al., 2020; Park and Chung, 2019.

[5] = test system: aconitase; experiment: Aconitase activity in enriched-mitochondrial pellets of FA fibroblasts; type: cell-based, human; design: aconitase activity after erastin: dose or concentration left out as unconfirmed
Experimental: Aconitase activity was measured as a result of formation of NADH and normalized to citrate synthase activity. FIG. 12B, pretreatment of AST with varying concentrations in FA fibroblasts for 4 h followed by 24 h treatment with erastin ([…]). Assays were conducted on enriched-mitochondrial pellets. Results are the means±SEM of n≥3 for all concentrations. *P<0.05, **P<0.005, ***P<0.0005, ****P<0.0001 for comparisons with the […]. Group comparisons are determined by a one-way analysis of variance (ANOVA) with Dunnet's correction post-hoc test using GraphPad Prism 8;
FXN deficiency results in diminished activity of various mitochondrial proteins that contain Fe—S cluster cofactors. For example, aconitase activity is affected in FA fibroblasts. Rötig et al., 1997. Aconitase catalyzes the stereospecific isomerization of citrate to isocitrate in the tricarboxylic acid cycle and its activity is highly dependent on an intact [4Fe-4S]^2+ cluster. We examined the impact of RSSH in FA fibroblasts on aconitase activity, the increase of which is reflective of preserved or augmented Fe—S cluster biosynthesis. […] To corroborate further that AST can effectively preserve or enhance Fe—S cluster assembly under challenging biological conditions, we conducted analogous experiments replacing H2O2 with erastin.

[6] = 10 equiv MMTS, PBS pH 7.4, 100 mM

COC(=O)C(NC(C)=O)C(C)(C)SSC(=O)Oc1ccccc1 (stereo not shown) [Precursor 1a, Methyl 2-acetamido-3-methyl-3-((phenoxycarbonyl)disulfaneyl)butanoate]
half-life [1]: 2.15 h
SSP4 fluorescence signal (intracellular sulfane sulfur) [2]: not observed
SSP4 fluorescence intensity (intracellular sulfane sulfur) ([2]; 100 and 200 mM, over a period of 3 h): Dose-dependent increases in fluorescence intensity
first-order rate constant k, disappearance of precursor [3, 6]: 0.00539 min⁻¹
first-order rate constant k, formation of phenol [3, 6]: 0.00533 min⁻¹
t1/2 of hydrolysis ([3]; pH 6.0): 26.65 ± 0.8 h
t1/2 of hydrolysis ([3]; pH 8.0): 0.617 ± 0.05 h
TFR1 protein level [4]: three-fold decrease
aconitase activity after H2O2 ([5]; 4 h pretreatment at 10, 25, 50 μM, 75 mM H2O2): rescues aconitase activity to levels found in control
aconitase activity after erastin ([5]; pretreatment): attenuated this adverse effect
